Experimental data published in patent US7064120B2, “Tricyclic pyridyl carboxamides and derivatives thereof tocolytic oxytocin receptor antagonists” (Wyeth, priority 2001, dated 2006).

Target: T1, human vasopressin V1a receptor subtype (Homo sapiens, UniProt P37288)
T1 construct: host or cells: CHO cells, stably transfected (pZeoSV vector for the Thibonnier line)
Test: Vasopressin binding in CHO cell membranes expressing human vasopressin V1a subtype receptors ([3H]Manning ligand radioligand binding)
Conditions: for inhibition at 0.1 µM: 100 nM; for IC50: value in parentheses
Outline: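 Radioligand displacement: [3H]Manning ligand, added as 8 nM stock, binds human V1a receptor in CHO-cell membranes (25–50 μg/well), pH 7.4 Tris buffer with protease inhibitors, 60 min room temperature. Bound counts collected by filter harvesting; values are percent inhibition at stated concentration or nanomolar IC50.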

T1 sequence (P37288 whole entry): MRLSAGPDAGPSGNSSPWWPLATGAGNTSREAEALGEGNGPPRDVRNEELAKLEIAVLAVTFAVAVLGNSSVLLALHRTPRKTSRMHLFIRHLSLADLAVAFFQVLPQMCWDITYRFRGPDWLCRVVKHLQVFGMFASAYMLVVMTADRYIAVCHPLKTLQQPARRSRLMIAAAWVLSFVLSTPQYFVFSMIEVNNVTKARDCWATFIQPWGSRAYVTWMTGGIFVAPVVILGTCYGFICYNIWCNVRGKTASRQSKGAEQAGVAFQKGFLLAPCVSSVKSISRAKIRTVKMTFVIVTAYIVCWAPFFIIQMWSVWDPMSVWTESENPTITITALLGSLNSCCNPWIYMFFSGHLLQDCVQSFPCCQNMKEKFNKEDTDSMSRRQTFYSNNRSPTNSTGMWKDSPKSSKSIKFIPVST

inhibition at 0.1 µM	IC50	SMILES
6%	–	COc1cc(C(=O)N2Cc3ccc(C(=O)N4CCN(c5ccccn5)CC4)n3Cc3ccccc32)ccc1-c1ccccc1C [Example 80, {10-[(2-Methoxy-2′-methyl-[1,1′-biphenyl]-4-yl)carbonyl]-10,11-dihydro-5H-pyrrolo[2,1-c][1,4]benzodiazepin-3-yl}[4-(2-pyridinyl)-1-piperazinyl]methanone]
-1%	–	COc1ccccc1-c1ccc(C(=O)N2Cc3ccc(C(=O)N4CCN(c5ccccn5)CC4)n3Cc3ccccc32)cc1C [Example 75, {10-[(2′-Methoxy-2-methyl-[1,1′-biphenyl]-4-yl)carbonyl]-10,11-dihydro-5H-pyrrolo[2,1-c][1,4]benzodiazepin-3-yl}[4-(2-pyridinyl)-1-piperazinyl]methanone]
5%	–	COc1cccc(-c2ccc(C(=O)N3Cc4ccc(C(=O)N5CCN(c6ccccn6)CC5)n4Cc4ccccc43)cc2C)c1 [Example 77, {10-[(3′-Methoxy-2-methyl-[1,1′-biphenyl]-4-yl)carbonyl]-10,11-dihydro-5H-pyrrolo[2,1-c][1,4]benzodiazepin-3-yl}[4-(2-pyridinyl)-1-piperazinyl]methanone]
21%	–	Cc1ccccc1-c1ccc(C(=O)N2Cc3ccc(C(=O)NCc4ccncc4)n3Cc3ccccc32)cc1 [Example 92, 10-[(2′-Methyl-[1,1′-biphenyl]-4-yl)carbonyl]-N-(4-pyridinylmethyl)-10,11-dihydro-5H-pyrrolo[2,1-c][1,4]benzodiazepine-3-carboxamide]
1%	–	Cc1cc(C(=O)N2Cc3ccc(C(=O)N4CCN(c5ccccn5)CC4)n3Cc3ccccc32)ccc1-c1ccccc1C(F)(F)F [Example 87, (10-{[2-Methyl-2′-trifluoromethyl-[1,1′-biphenyl]-4-yl]carbonyl}-10,11-dihydro-5H-pyrrolo[2,1-c][1,4]benzodiazepin-3-yl)[4-(2-pyridinyl)-1-piperazinyl]methanone]
–	3180 nM	Cc1cc(C(=O)N2Cc3ccc(C(=O)N4CCN(Cc5ccc[n+]([O-])c5)CC4)n3Cc3ccccc32)ccc1-c1ccccc1C(F)(F)F [Example 2, 10-{[2-Methyl-2′-trifluoromethyl-[1,1′-biphenyl]-4-yl]carbonyl}-3-({4-[(1-oxidopyridin-3-yl)methyl]piperazin-1-yl}carbonyl)-10,11-dihydro-5H-pyrrolo[2,1-c][1,4]benzodiazepine]
–	275 nM	COc1cccc(-c2ccc(C(=O)N3Cc4ccc(C(=O)N(C)Cc5cccnc5)n4Cc4ccccc43)cc2C)c1 [Example 102, 10-[(3′-Methoxy-2-methyl-[1,1′-biphenyl]4-yl)carbonyl]-N-methyl-N-(3-pyridinyImethyl)-10,11-dihydro-5H-pyrrolo[2,1-c][1,4]benzodiazepine-3-carboxamide]
50%	–	COc1cc(C(=O)N2Cc3ccc(C(=O)NCc4ccncc4)n3Cc3ccccc32)ccc1-c1ccccc1C [Example 93, 10-[(2-Methoxy-2′-methyl-[1,1′-biphenyl]-4-yl)carbonyl]-N-(4-pyridinylmethyl)-10,11-dihydro-5H-pyrrolo[2,1-c][1,4]benzodiazepine-3-carboxamide]
–	792 nM	Cc1cc(C(=O)N2Cc3ccc(C(=O)N(C)Cc4ccc[n+]([O-])c4)n3Cc3ccccc32)ccc1-c1ccccc1C(F)(F)F [Example 4, N-Methyl-10-{[2-methyl-2′-trifluoromethyl-[1,1′-biphenyl]-4-yl]carbonyl}-N-[(1-oxidopyridin-3-yl)methyl]-10,11-dihydro-5H-pyrrolo[2,1-c][1,4]benzodiazepine-3-carboxamide]
11%	–	COc1ccccc1-c1ccc(C(=O)N2Cc3ccc(C(=O)NCc4ccncc4)n3Cc3ccccc32)cc1 [Example 91, 10-[(2′-Methoxy-[1,1′-biphenyl]-4-yl)carbonyl]-N-(4-pyridinylmethyl)-10,11-dihydro-5H-pyrrolo[2,1-c][1,4]benzodiazepine-3-carboxamide]
-7%	–	O=C(NCc1ccncc1)c1ccc2n1Cc1ccccc1N(C(=O)c1ccc(-c3cccc4ccccc34)cc1Cl)C2 [Example 99, 10-[2-Chloro-4-(naphthalen-1-yl)benzoyl]-N-(4-pyridinylmethyl)-10,11-dihydro-5H-pyrrolo[2,1-c][1,4]benzodiazepine-3-carboxamide]
14%	–	COc1cccc(-c2ccc(C(=O)N3Cc4ccc(C(=O)NCc5ccncc5)n4Cc4ccccc43)cc2C)c1 [Example 90, 10-[(3′-Methoxy-2-methyl-[1,1′-biphenyl]-4-yl)carbonyl]-N-(4-pyridinylmethyl)-10,11-dihydro-5H-pyrrolo[2,1-c][1,4]benzodiazepine-3-carboxamide]
–	365 nM	COc1ccccc1-c1ccc(C(=O)N2Cc3ccc(C(=O)N4CCN(c5ccncc5)CC4)n3Cc3ccccc32)cc1C [Example 113, {10-[(2′-Methoxy-2-methyl-[1,1′-biphenyl]-4-yl)carbonyl]-10,11-dihydro-5H-pyrrolo[2,1-c][1,4]benzodiazepin-3-yl}[4-(4-pyridinyl)-1-piperazinyl]methanone]
63%	–	Cc1cc(C(=O)N2Cc3ccc(C(=O)N(C)CCc4ccccn4)n3Cc3ccccc32)ccc1-c1ccccc1C(F)(F)F [Example 74, N-Methyl-10-{[2-methyl-2′-trifluoromethyl-[1,1′-biphenyl]-4-yl]carbonyl}-N-[2-(2-pyridinyl)ethyl]-10,11-dihydro-5H-pyrrolo[2,1-c][1,4]benzodiazepine-3-carboxamide]
1%	–	O=C(c1ccc2n1Cc1ccccc1N(C(=O)c1ccc(-c3cccc4ccccc34)cc1Cl)C2)N1CCN(c2ccccn2)CC1 [Example 86, {10-[2-Chloro-4-(naphthalen-1-yl)benzoyl]-10,11-dihydro-5H-pyrrolo[2,1-c][1,4]benzodiazepin-3-yl}[4-(2-pyridinyl)-1-piperazinyl]methanone]
1%	–	COc1cccc(-c2cc(OC)c(C(=O)N3Cc4ccc(C(=O)NCc5ccncc5)n4Cc4ccccc43)cc2Cl)c1 [Example 95, 10-[(6-Chloro-3,3′-dimethoxy-[1,1′-biphenyl]-4-yl)carbonyl]-N-(4-pyridinylmethyl)-10,11-dihydro-5H-pyrrolo[2,1-c][1,4]benzodiazepine-3-carboxamide]
25%	–	COc1ccccc1-c1ccc(C(=O)N2Cc3ccc(C(=O)N(C)CCc4ccccn4)n3Cc3ccccc32)cc1C [Example 65, 10-[(2′-Methoxy-2-methyl-[1,1′-biphenyl]-4-yl)carbonyl]-N-methyl-N-[2-(2-pyridinyl)ethyl]-10,11-dihydro-5H-pyrrolo[2,1-c][1,4]benzodiazepine-3-carboxamide]
40%	–	COc1ccccc1-c1ccc(C(=O)N2Cc3ccc(C(=O)N(C)CCc4ccccn4)n3Cc3ccccc32)cc1 [Example 67, 10-[(2′-Methoxy-[1,1′-biphenyl]-4-yl)carbonyl]-N-methyl-N-[2-(2-pyridinyl)ethyl]-10,11-dihydro-5H-pyrrolo[2,1-c][1,4]benzodiazepine-3-carboxamide]
54%	–	COc1cccc(-c2ccc(C(=O)N3Cc4ccc(C(=O)N(C)CCc5ccccn5)n4Cc4ccccc43)cc2OC)c1 [Example 72, 10-[(2,3′-Dimethoxy-[1,1′-biphenyl]-4-yl)carbonyl]-N-methyl-N-[2-(2-pyridinyl)ethyl]-10,11-dihydro-5H-pyrrolo[2,1-c][1,4]benzodiazepine-3-carboxamide]
3%	–	COc1ccccc1-c1ccc(C(=O)N2Cc3ccc(C(=O)N4CCN(c5ccccn5)CC4)n3Cc3ccccc32)cc1OC [Example 84, {10-[(2,2′-Dimethoxy-[1,1′-biphenyl]-4-yl)carbonyl]-10,11-dihydro-5H-pyrrolo[2,1-c][1,4]benzodiazepin-3-yl}[4-(2-pyridinyl)-1-piperazinyl]methanone]
-1%	–	COc1cccc(-c2cc(OC)c(C(=O)N3Cc4ccc(C(=O)N5CCN(c6ccccn6)CC5)n4Cc4ccccc43)cc2Cl)c1 [Example 82, {10-[(6-Chloro-3,3′-dimethoxy-[1,1′-biphenyl]-4-yl)carbonyl]-10,11-dihydro-5H-pyrrolo[2,1-c][1,4]benzodiazepin-3-yl}[4-(2-pyridinyl)-1-piperazinyl]methanone]
–	273 nM	COc1cc(-c2ccccc2C)c(Cl)cc1C(=O)N1Cc2ccc(C(=O)N(C)CCc3ccccn3)n2Cc2ccccc21 [Example 63, 10-[(6-Chloro-3-methoxy-2′-methyl-[1,1′-biphenyl]-4-yl)carbonyl]-N-methyl-N-[2-(2-pyridinyl)ethyl]-10,11-dihydro-5H-pyrrolo[2,1-c][1,4]benzodiazepine-3-carboxamide]
29%	–	Cc1ccccc1-c1ccc(C(=O)N2Cc3ccc(C(=O)NCc4ccncc4)n3Cc3ccccc32)cc1C [Example 89, 10-[(2,2′-Dimethyl-[1,1′-biphenyl]-4-yl)carbonyl]-N-(4-pyridinylmethyl)-10,11-dihydro-5H-pyrrolo[2,1-c][1,4]benzodiazepine-3-carboxamide]
-5%	–	COc1cccc(-c2ccc(C(=O)N3Cc4ccc(C(=O)N5CCN(c6ccccn6)CC5)n4Cc4ccccc43)cc2OC)c1 [Example 85, {10-[(2,3′-Dimethoxy-[1,1′-biphenyl]-4-yl)carbonyl]-10,11-dihydro-5H-pyrrolo[2,1-c][1,4]benzodiazepin-3-yl}[4-(2-pyridinyl)-1-piperazinyl]methanone]
4%	–	COc1ccccc1-c1ccc(C(=O)N2Cc3ccc(C(=O)NCc4ccncc4)n3Cc3ccccc32)cc1OC [Example 97, 10-[(2,2′-Dimethoxy-[1,1′-biphenyl]-4-yl)carbonyl]-N-(4-pyridinylmethyl)-10,11-dihydro-5H-pyrrolo[2,1-c][1,4]benzodiazepine-3-carboxamide]
